Strand notation (5' to 3'): a small letter for the sugar, then the base; units joined by * are phosphorothioate-linked, units joined directly phosphodiester-linked; [ ] holds rarer units or linkages, { } end groups; capitals alone tell only the bases. e = 2'-O-(2-methoxyethyl) (MOE); [5mC] = 5-methylcytosine; d = 2'-deoxy (DNA)
How the values were obtained:
[1] = tested on: human SMAD7 mRNA; test: Dose-dependent inhibition of human SMAD7 mRNA expression in Hep3B cells (Example 3, Study 1 and 2); assay type: cell-based; conditions: electroporation; for % inhibition of SMAD7 mRNA expression: approximately 16 hours; for IC50: Study 1 (312.5-20000 nM)
Outline: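 Hep3B cells, 20,000 per well, electroporated with antisense oligonucleotide at 0.31, 1.25, 5.00 or 20.00 μM (first series) or 0.74, 2.22, 6.67 or 20.00 μM (second series). After ~16 h, SMAD7 mRNA measured by RT-qPCR (RTS5062), normalised to RIBOGREEN total RNA. Percent inhibition vs untreated cells; IC50 derived.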

[2] = tested on: human SMAD7 mRNA; test: Antisense inhibition of human SMAD7 mRNA expression in Hep3B cells by 5-10-5 MOE gapmers, single concentration, electroporation, RT-PCR (Example 1, Study 1 and 2); assay type: cell-based; conditions: for % Inhibition of SMAD7 mRNA: electroporation with 15,000 nM antisense oligonucleotide (Study 2)
Outline: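 Hep3B cells (20,000/well) electroporated with 5-10-5 MOE gapmer at 5,000 nM or 15,000 nM for approximately 24 h. SMAD7 mRNA quantified by real-time PCR with primer probe set RTS5062 and normalized to RIBOGREEN total RNA. Values are percent inhibition relative to untreated controls.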

[3] = 312.5 nM, Study 1, relative to untreated control cells
[4] = electroporation, 15,000 nM antisense oligonucleotide (Study 2), 5-10-5 MOE gapmers targeting SEQ ID NO: 1 and 2
[5] = Study 2, electroporation with 15,000 nM antisense oligonucleotide, 5-10-5 MOE gapmers targeting SEQ ID NO: 1 and 2
[6] = electroporation, 15,000 nM, approximately 24 hours, relative to untreated control cells, gapmers targeting SEQ ID NO: 1 and 2
[7] = 5-10-5 MOE gapmers targeting SEQ ID NO: 1 and 2

| Substance | % inhibition of SMAD7 mRNA expression [1, 3] | % inhibition of SMAD7 mRNA expression ([1]; 1250.0 nM, Study 1) | % inhibition of SMAD7 mRNA expression ([1]; 5000.0 nM, Study 1) | % inhibition of SMAD7 mRNA expression ([1]; 20000.0 nM, Study 1) | IC50 [1] | % inhibition of SMAD7 mRNA expression [2, 4] | % Inhibition [2, 5] | % inhibition of SMAD7 mRNA expression [2, 6] | % Inhibition of SMAD7 mRNA [2, 7] | % inhibition of SMAD7 mRNA expression ([2]; electroporation, 5,000 nM, approximately 24 hours, relative to untreated control cells, gapmers targeting SEQ ID NO: 1 and 2) | % inhibition of SMAD7 mRNA expression [2, 5] |
| --- | --- | --- | --- | --- | --- | --- | --- | --- | --- | --- | --- |
| 771403 (antisense eG*eA*eA*e[5mC]*eA*dT*dG*dA*d[5mC]*d[5mC]*dT*d[5mC]*d[5mC]*dG*d[5mC]*eA*e[5mC]*eA*e[5mC]*e[5mC]) [compound 771403] | 5% | 4% | 25% | 35% | > 20 µM | 62% |  |  |  |  |  |
| 771407 (antisense eA*eG*eG*eA*eG*d[5mC]*dG*dA*dA*d[5mC]*dA*dT*dG*dA*d[5mC]*e[5mC]*eT*e[5mC]*e[5mC]*eG) [compound 771407] | 17% | 0% | 30% | 46% | > 20 µM |  | 59% |  |  |  |  |
| 771414 (eT*e[5mC]*eG*eG*e[5mC]*dT*dG*dT*d[5mC]*d[5mC]*dG*dT*d[5mC]*dG*d[5mC]*e[5mC]*e[5mC]*e[5mC]*eT*eT; antisense) [compound 771414] | 0% | 2% | 43% | 33% | > 20 µM |  |  | 65% |  |  |  |
| 771416 (e[5mC]*e[5mC]*e[5mC]*e[5mC]*eA*dT*dG*d[5mC]*dG*d[5mC]*dT*d[5mC]*dG*dG*d[5mC]*eT*eG*eT*e[5mC]*e[5mC]; antisense) [compound 771416] | 0% | 3% | 19% | 35% | > 20 µM |  | 58% |  |  |  |  |
| 771418 (e[5mC]*e[5mC]*eG*e[5mC]*e[5mC]*dA*d[5mC]*d[5mC]*dG*dG*d[5mC]*d[5mC]*d[5mC]*d[5mC]*dA*eT*eG*e[5mC]*eG*e[5mC]; antisense) [compound 771418] | 3% | 0% | 0% | 0% |  | 60% |  |  |  |  |  |
| 771439 (eG*eG*e[5mC]*eT*eG*d[5mC]*dG*d[5mC]*dG*d[5mC]*d[5mC]*dG*dG*d[5mC]*dG*eG*eG*e[5mC]*eG*e[5mC]; antisense) [compound 771439] | 0% | 24% | 49% | 55% | 9 µM |  | 48% |  |  |  |  |
| 771441 (e[5mC]*eG*eA*eG*eG*dG*d[5mC]*dG*dG*d[5mC]*dT*dG*d[5mC]*dG*d[5mC]*eA*eG*eG*e[5mC]*eT; antisense) [compound 771441] | 0% | 5% | 45% | 64% | 9 µM | 10% |  |  | 60% |  |  |
| 771444 (eA*eG*e[5mC]*e[5mC]*eT*d[5mC]*dT*dT*dG*dA*d[5mC]*dT*dT*d[5mC]*d[5mC]*eG*eA*eG*eG*eA; antisense) [compound 771444] | 0% | 0% | 9% | 29% | > 20 µM |  | 67% |  |  | 65% |  |
| 771461 (antisense eG*eT*eA*eG*eA*dG*d[5mC]*d[5mC]*dT*d[5mC]*d[5mC]*d[5mC]*d[5mC]*dA*d[5mC]*eT*e[5mC]*eT*e[5mC]*eG) [compound 771461] | 0% | 2% | 11% | 39% | > 20 µM |  | 37% |  |  |  |  |
| 771464 (antisense eG*eA*eG*eA*eG*dG*dG*d[5mC]*dT*d[5mC]*d[5mC]*dT*dG*dG*dA*e[5mC]*eA*e[5mC]*eA*eG) [compound 771464] | 11% | 8% | 21% | 50% | > 20 µM |  | 55% |  |  |  |  |
| 771474 (antisense eG*e[5mC]*eA*eG*e[5mC]*d[5mC]*dG*dA*dT*dT*dT*dT*dG*d[5mC]*dT*e[5mC]*e[5mC]*eG*e[5mC]*eA) [compound 771474] | 3% | 4% | 21% | 52% | 17 µM | 56% |  |  |  |  |  |
| 771479 (antisense eG*eG*eG*eA*eA*d[5mC]*dA*d[5mC]*d[5mC]*dT*dT*dG*dT*dG*dT*eA*e[5mC]*e[5mC]*eA*eA) [compound 771479] | 0% | 8% | 49% | 74% | 7 µM |  |  |  |  |  | 58% |
| 771487 (antisense e[5mC]*eT*eG*e[5mC]*eA*d[5mC]*dG*dG*dT*dA*dA*dA*dG*d[5mC]*d[5mC]*e[5mC]*eG*eT*e[5mC]*e[5mC]) [compound 771487] | 4% | 0% | 7% | 26% | > 20 µM |  |  |  |  |  | 45% |
| 771506 (antisense eG*e[5mC]*eT*e[5mC]*eA*dG*d[5mC]*dT*d[5mC]*dA*d[5mC]*dG*d[5mC]*dT*d[5mC]*eT*eG*eT*e[5mC]*e[5mC]) [compound 771506] | 54% | 1% | 5% | 44% | > 20 µM | 53% |  |  |  |  |  |
| 771509 (antisense eG*eG*e[5mC]*e[5mC]*eT*dG*d[5mC]*dT*d[5mC]*dA*dG*d[5mC]*dT*d[5mC]*dA*e[5mC]*eG*e[5mC]*eT*e[5mC]) [compound 771509] | 0% | 0% | 13% | 47% | > 20 µM |  |  | 65% |  |  |  |
| 771552 (antisense e[5mC]*eT*eT*eG*eG*dA*dT*dT*dT*d[5mC]*dT*dG*d[5mC]*dT*dT*e[5mC]*e[5mC]*e[5mC]*e[5mC]*eT) [compound 771552] | 2% | 25% | 20% | 45% | > 20 µM | 28% |  |  | 53% |  |  |
| 771556 (antisense e[5mC]*e[5mC]*e[5mC]*eT*eT*d[5mC]*dA*dT*dA*d[5mC]*dA*d[5mC]*dT*dG*dT*eG*eT*eT*eT*eG) [compound 771556] | 1% | 0% | 9% | 33% | > 20 µM |  |  |  |  |  | 30% |
| 771570 (antisense eT*eG*eG*eG*eA*d[5mC]*dT*dG*d[5mC]*dA*dA*dA*d[5mC]*d[5mC]*dT*e[5mC]*eT*e[5mC]*eT*eG) [compound 771570] | 0% | 0% | 43% | 48% | > 20 µM | 60% |  |  |  |  |  |

From patent US10517889B2, “Modulators of SMAD7 expression” (Ionis Pharmaceuticals, Inc., priority 2017, dated 2019)
